According to PubChem BioAssay AID1259407 (Chemical Carcinogenesis Research Information System (CCRIS), 2018):
Activity calls are given as the source filed them. No rule for the calls is given here.

Tested on: CCRIS mutagenicity, Ames/micronucleus/aberration tests
Test: CCRIS mutagenicity studies
[1] = Test System: AMES SALMONELLA TYPHIMURIUM, Strain/Indicator: TA98, Metabolic Activation: NONE, Method: STANDARD PLATE
[2] = Test System: AMES SALMONELLA TYPHIMURIUM, Strain/Indicator: TA100, Metabolic Activation: RAT, LIVER, S-9, AROCLOR 1254, Method: STANDARD PLATE
[3] = Test System: AMES SALMONELLA TYPHIMURIUM, Strain/Indicator: TA100, Metabolic Activation: NONE, Method: PREINCUBATION
[4] = Test System: AMES SALMONELLA TYPHIMURIUM, Strain/Indicator: TA100, Metabolic Activation: NONE, Method: STANDARD PLATE
[5] = Test System: AMES SALMONELLA TYPHIMURIUM, Strain/Indicator: TA1535, Metabolic Activation: NONE, Method: STANDARD PLATE

Measured: mutagenic call

ONc1ncnc2nc[nH]c12
inactive: Test System: AMES SALMONELLA TYPHIMURIUM, Strain/Indicator: TA97, Metabolic Activation: RAT, LIVER, S-9, AROCLOR 1254, Method: STANDARD PLATE inactive; negative | [1] inactive; negative | [2] inactive; negative
active: Test System: AMES SALMONELLA TYPHIMURIUM, Strain/Indicator: HISG46, Metabolic Activation: NONE, Method: STANDARD PLATE active; positive | Test System: AMES SALMONELLA TYPHIMURIUM, Strain/Indicator: TA97, Metabolic Activation: NONE, Method: STANDARD PLATE active; positive | Test System: AMES SALMONELLA TYPHIMURIUM, Strain/Indicator: TA100(TN5-1,8-DNP1011), Metabolic Activation: NONE, Method: STANDARD PLATE active; positive | Test System: AMES SALMONELLA TYPHIMURIUM, Strain/Indicator: TA100(TN5-1,8-DNP1012), Metabolic Activation: NONE, Method: STANDARD PLATE active; positive | Test System: AMES SALMONELLA TYPHIMURIUM, Strain/Indicator: TA1950, Metabolic Activation: NONE, Method: STANDARD PLATE active; positive | Test System: E.COLI, Strain/Indicator: CM871, Metabolic Activation: NONE, Method: STANDARD PLATE active; positive | Test System: E.COLI, Strain/Indicator: WP2, Metabolic Activation: NONE, Method: STANDARD PLATE active; positive

O=S(=O)(O)NO
inactive: Test System: AMES SALMONELLA TYPHIMURIUM, Strain/Indicator: G46, Metabolic Activation: RAT, LIVER, S-9, AROCLOR 1254, Method: STANDARD PLATE inactive; negative | [2] inactive; negative

OC1C=CC=CC1O (centres undefined)
active: Test System: AMES SALMONELLA TYPHIMURIUM, Strain/Indicator: TA100, Metabolic Activation: RAT, LIVER, S-9, PHENOBARBITAL, Method: PREINCUBATION active; positive | Test System: AMES SALMONELLA TYPHIMURIUM, Strain/Indicator: TA100, Metabolic Activation: RAT, LIVER, S-9, PHENOBARBITAL, Method: STANDARD PLATE active; positive | Test System: AMES SALMONELLA TYPHIMURIUM, Strain/Indicator: TM677/8-AZAGUANINE, Metabolic Activation: NONE, Method: STANDARD PLATE active; positive | Test System: AMES SALMONELLA TYPHIMURIUM, Strain/Indicator: TM677/8-AZAGUANINE, Metabolic Activation: RAT, LIVER, S-9, PHENOBARBITAL, Method: PREINCUBATION active; positive
inactive: [1] inactive; negative | Test System: AMES SALMONELLA TYPHIMURIUM, Strain/Indicator: TA98, Metabolic Activation: RAT, LIVER, S-9, PHENOBARBITAL, Method: STANDARD PLATE inactive; negative | [3] inactive; negative | [4] inactive; negative | Test System: AMES SALMONELLA TYPHIMURIUM, Strain/Indicator: TM677/8-AZAGUANINE, Metabolic Activation: NONE, Method: PREINCUBATION inactive; negative

O=[N+]([O-])c1ccc2c(CCO)c[nH]c2c1
active: Test System: AMES SALMONELLA TYPHIMURIUM, Strain/Indicator: TA97A, Metabolic Activation: NONE, Method: STANDARD PLATE active; positive | Test System: AMES SALMONELLA TYPHIMURIUM, Strain/Indicator: TA98(1,8-DNP6), Metabolic Activation: NONE, Method: STANDARD PLATE active; positive | Test System: AMES SALMONELLA TYPHIMURIUM, Strain/Indicator: TA98(NR), Metabolic Activation: NONE, Method: STANDARD PLATE active; positive | Test System: AMES SALMONELLA TYPHIMURIUM, Strain/Indicator: TA98, Metabolic Activation: NONE, Method: SEM (1.1) 100-2000 NM (TEST MATERIAL SOLVENT: DMSO) 100-2000 N 2000 N active; positive | [4] active; positive | Test System: AMES SALMONELLA TYPHIMURIUM, Strain/Indicator: TA1537, Metabolic Activation: NONE, Method: STANDARD PLATE active; positive
inactive: [5] inactive; negative

CS(=O)(=O)O
inactive: [4] inactive; negative | Test System: AMES SALMONELLA TYPHIMURIUM, Strain/Indicator: TA100, Metabolic Activation: RAT, LIVER, S-9, AROCLOR 1254 (10%), Method: STANDARD PLATE inactive; negative | [5] inactive; negative | Test System: AMES SALMONELLA TYPHIMURIUM, Strain/Indicator: TA1535, Metabolic Activation: RAT, LIVER, S-9, AROCLOR 1254 (10%), Method: STANDARD PLATE inactive; negative

N=C(N)N
inactive: Test System: AMES SALMONELLA TYPHIMURIUM, Strain/Indicator: TA98, Metabolic Activation: NONE, Method: PREINCUBATION inactive; negative | Test System: AMES SALMONELLA TYPHIMURIUM, Strain/Indicator: TA98, Metabolic Activation: RAT LIVER S-9, PHENOBARBITAL AND BETA-NAPHTHOFLAVONE, Method: PREINCUBATION inactive; negative | [3] inactive; negative | Test System: AMES SALMONELLA TYPHIMURIUM, Strain/Indicator: TA100, Metabolic Activation: RAT LIVER S-9, PHENOBARBITAL AND BETA-NAPHTHOFLAVONE, Method: PREINCUBATION inactive; negative | Test System: AMES SALMONELLA TYPHIMURIUM, Strain/Indicator: TA1535, Metabolic Activation: NONE, Method: PREINCUBATION inactive; negative | Test System: AMES SALMONELLA TYPHIMURIUM, Strain/Indicator: TA1535, Metabolic Activation: RAT LIVER S-9, PHENOBARBITAL AND BETA-NAPHTHOFLAVONE, Method: PREINCUBATION inactive; negative | Test System: AMES SALMONELLA TYPHIMURIUM, Strain/Indicator: TA1537, Metabolic Activation: NONE, Method: PREINCUBATION inactive; negative | Test System: AMES SALMONELLA TYPHIMURIUM, Strain/Indicator: TA1537, Metabolic Activation: RAT LIVER S-9, PHENOBARBITAL AND BETA-NAPHTHOFLAVONE, Method: PREINCUBATION inactive; negative | Test System: AMES SALMONELLA TYPHIMURIUM, Strain/Indicator: TA1538, Metabolic Activation: NONE, Method: PREINCUBATION inactive; negative | Test System: AMES SALMONELLA TYPHIMURIUM, Strain/Indicator: TA1538, Metabolic Activation: RAT LIVER S-9, PHENOBARBITAL AND BETA-NAPHTHOFLAVONE, Method: PREINCUBATION inactive; negative | Test System: E.COLI, Strain/Indicator: WP2UVRA, Metabolic Activation: NONE, Method: PREINCUBATION inactive; negative | Test System: E.COLI, Strain/Indicator: WP2UVRA, Metabolic Activation: RAT LIVER S-9, PHENOBARBITAL AND BETA-NAPHTHOFLAVONE, Method: PREINCUBATION inactive; negative
